Measurements from US20070099259A1, “ELECTROCHEMICAL ASSAY FOR THE IDENTIFICATION OF MICROORGANISMS” (RAPID LABORATORY MICROSYSTEMS INC., priority 2003, published 2007).

Columns and labels:
Experiment in all cases: Relative respiratory activity with 22 effectors (Example 3)
[1] = test system: S. cerevisiae; format: cell-based, Saccharomyces cerevisiae; conditions: for activity at 20000 µM: effector 20 mM; for activity at 20000 µM / relative %-respiratory activity: 5 μM DCIP, no effector = 100%, n = 10; for relative %-respiratory activity: effector 10 mM
Excerpt: (§1) In this example, each microorganism is subjected to 22 different effector compounds in addition to control measurements. […] For each microorganism, duplicate measurements were made of 22 different effector compounds. In addition, duplicate measurements were made a control test containing no effector compound. One additional measurement was made of a control solution containing the microorganism with ferricyanide but without effector or DCIP.
(§2) In this example, each normalized data set containing duplicate measurements for each of 22 effector compounds is referenced to the duplicate internal controls to allow batch-to-batch comparison. The obtained signals of charge per unit electrode area for the duplicate control measurements are averaged and set at 100% respiratory cycle activity. […] The data set used to generate pattern recognition plots consists of 5 replicate batches (each batch containing duplicate measurements for each of 22 effector compounds) for each cell culture (10 strains). This is used to generate a 50 (columns)×22 (rows) matrix. The matrix is imported into MATLAB (Version 6.0). Factor analysis is performed using the MATLAB Chemometric Toolbox (Version 2.3) and involves the generation of reduced eigenvectors to determine the optimal number of factors, examination of the resulting residuals plots for randomness, and the generation of scores for the first four principle components.

[2] = test system: E. faecalis; format: cell-based, Enterococcus faecalis; conditions: for activity at 20000 µM: effector 20 mM; for activity at 20000 µM / relative %-respiratory activity: 5 μM DCIP, no effector = 100%, n = 20; for relative %-respiratory activity: effector 10 mM
Excerpt: as §1, §2

[3] = test system: E. coli JM105; format: cell-based; conditions: for activity at 20000 µM: JM105, effector 20 mM; for activity at 20000 µM / relative %-respiratory activity: 5 μM DCIP, no effector = 100%, n = 10; for relative %-respiratory activity: effector 10 mM
Excerpt: as §1, §2

[4] = test system: E. coli HB101; format: cell-based; conditions: for activity at 20000 µM: HB101, effector 20 mM; for activity at 20000 µM / relative %-respiratory activity: 5 μM DCIP, no effector = 100%, n = 18; for relative %-respiratory activity: effector 10 mM
Excerpt: as §1, §2

[5] = test system: E. coli B; format: cell-based; conditions: for activity at 20000 µM: effector 20 mM
Excerpt: as §1, §2

[6] = test system: E. coli Neotype; format: cell-based; conditions: for activity at 20000 µM: effector 20 mM; for activity at 20000 µM / relative %-respiratory activity: 5 μM DCIP, no effector = 100%, n = 26; for relative %-respiratory activity: effector 10 mM
Excerpt: as §1, §2

[7] = test system: P. vulgaris ATCC6380; format: cell-based, Proteus vulgaris; conditions: for activity at 20000 µM: ATCC6380, effector 20 mM; for activity at 20000 µM / relative %-respiratory activity: 5 μM DCIP, no effector = 100%, n = 20; for relative %-respiratory activity: effector 10 mM
Excerpt: as §1, §2

[8] = test system: E. aerogenes ATCC13048e; format: cell-based, Enterobacter aerogenes; conditions: for activity at 20000 µM: effector 20 mM; for activity at 20000 µM / relative %-respiratory activity: 5 μM DCIP, no effector = 100%, n = 26; for relative %-respiratory activity: effector 10 mM
Excerpt: as §1, §2

[9] = test system: S. aureus ATCC6538P; format: cell-based, Staphylococcus aureus; conditions: for activity at 20000 µM: effector 20 mM; for activity at 20000 µM / relative %-respiratory activity: 5 μM DCIP, no effector = 100%, n = 20; for relative %-respiratory activity: effector 10 mM
Excerpt: as §1, §2

[10] = test system: P. aeruginosa; format: cell-based, Pseudomonas aeruginosa; conditions: for activity at 20000 µM: effector 20 mM; for activity at 20000 µM / relative %-respiratory activity: 5 μM DCIP, no effector = 100%, n = 18; for relative %-respiratory activity: effector 10 mM
Excerpt: as §1, §2

[11] = Escherichia coli, 5 μM DCIP, no effector = 100%, n = 10
[12] = Klebsiella aerogenes, ATCC13048E
[13] = Staphylococcus aureus, ATCC6538P
[14] = Escherichia coli, read-out: relative %-respiratory activity

Structure (SMILES)	activity at 20000 µM ([1]; Saccharomyces cerevisiae) [%]	activity at 20000 µM ([2]; Enterococcus faecalis) [%]	activity at 20000 µM ([3]; Escherichia coli) [%]	activity at 20000 µM ([4]; Escherichia coli) [%]	activity at 20000 µM [5, 11] [%]	activity at 20000 µM ([6]; Escherichia coli) [%]	activity at 20000 µM ([7]; Proteus vulgaris) [%]	activity at 20000 µM [8, 12] [%]	activity at 20000 µM [9, 13] [%]	activity at 20000 µM ([10]; Pseudomonas aeruginosa) [%]	relative %-respiratory activity [1] [%]	relative %-respiratory activity [2] [%]	relative %-respiratory activity [3] [%]	relative %-respiratory activity [4] [%]	relative %-respiratory activity [6] [%]	relative %-respiratory activity [7] [%]	relative %-respiratory activity [8] [%]	relative %-respiratory activity [9] [%]	relative %-respiratory activity [10] [%]	also measured
O=C[C@H](O)[C@@H](O)[C@H](O)CO [D-xylose]	116	128	134	110	102	110	178	149	128	113										
OC[C@H]1O[C@@](CO)(O[C@H]2O[C@H](CO)[C@@H](O)[C@H](O)[C@H]2O)[C@@H](O)[C@@H]1O [Sucrose]	161	465	121	110	124	122	164	188	290	117										
O=P(O)(O)OC(CO)CO [Beta-glycerophosphate]											105	120	121	110	108	136	131	114	114	
O=C(O)CCC(=O)C(=O)O [Alpha-ketoglutarate]											124	109	142	116	100	201	102	115	97	relative %-respiratory activity ([5]; effector 10 mM, 5 μM DCIP, no effector = 100%, n = 10): 130%
O=C(O)CC(O)(CC(=O)O)C(=O)O [Citric acid]	103	117	113	137	161	158	142	163	83	87										
O=CO [Formic acid]																				activity at 10000 µM ([1]; Saccharomyces cerevisiae, read-out: relative %-respiratory activity): 132%; activity at 10000 µM ([2]; Enterococcus faecalis, read-out: relative %-respiratory activity): 157%; activity at 10000 µM ([3]; Escherichia coli, JM105, read-out: relative %-respiratory activity): 136%; activity at 10000 µM ([4]; Escherichia coli, HB101, read-out: relative %-respiratory activity): 163%; activity at 10000 µM [5, 14]: 132%; activity at 10000 µM [6, 14]: 114%; activity at 10000 µM ([7]; Proteus vulgaris, ATCC6380, read-out: relative %-respiratory activity): 222%; activity at 10000 µM ([8]; Klebsiella aerogenes, ATCC13048E, read-out: relative %-respiratory activity): 124%; activity at 10000 µM ([9]; Staphylococcus aureus, ATCC6538P, read-out: relative %-respiratory activity): 298%; activity at 10000 µM ([10]; Pseudomonas aeruginosa, read-out: relative %-respiratory activity): 120%
